Assay results: ChEMBL document CHEMBL5126617, “Application of Degradation of Cyclic-AMP Response Element Binding Protein for the Potential Treatment of Cancer” (ACS Med Chem Lett, 2022)
pIC50: −log10 of the molar value.

Legend:
[1] = biological target: Protein cereblon/Histone acetyltransferase p300 (Homo sapiens) (UniProt Q09472+Q96SW2); experiment: Protac activity at E3 ubiquitin ligase/P300 in human LNcaP cells assessed as degradation of P300 at 10 nM by immunoblotting analysis relative to control; assay type: cell-based
[2] = test system: LNCaP; experiment: Antiproliferative activity against human LNCaP cells assessed as reduction in cell viability by CellTitre-Glo assay; assay type: functional, cell-based

Protein cereblon/Histone acetyltransferase p300 (Homo sapiens), sequence (Q09472 2-2414 limits assumed): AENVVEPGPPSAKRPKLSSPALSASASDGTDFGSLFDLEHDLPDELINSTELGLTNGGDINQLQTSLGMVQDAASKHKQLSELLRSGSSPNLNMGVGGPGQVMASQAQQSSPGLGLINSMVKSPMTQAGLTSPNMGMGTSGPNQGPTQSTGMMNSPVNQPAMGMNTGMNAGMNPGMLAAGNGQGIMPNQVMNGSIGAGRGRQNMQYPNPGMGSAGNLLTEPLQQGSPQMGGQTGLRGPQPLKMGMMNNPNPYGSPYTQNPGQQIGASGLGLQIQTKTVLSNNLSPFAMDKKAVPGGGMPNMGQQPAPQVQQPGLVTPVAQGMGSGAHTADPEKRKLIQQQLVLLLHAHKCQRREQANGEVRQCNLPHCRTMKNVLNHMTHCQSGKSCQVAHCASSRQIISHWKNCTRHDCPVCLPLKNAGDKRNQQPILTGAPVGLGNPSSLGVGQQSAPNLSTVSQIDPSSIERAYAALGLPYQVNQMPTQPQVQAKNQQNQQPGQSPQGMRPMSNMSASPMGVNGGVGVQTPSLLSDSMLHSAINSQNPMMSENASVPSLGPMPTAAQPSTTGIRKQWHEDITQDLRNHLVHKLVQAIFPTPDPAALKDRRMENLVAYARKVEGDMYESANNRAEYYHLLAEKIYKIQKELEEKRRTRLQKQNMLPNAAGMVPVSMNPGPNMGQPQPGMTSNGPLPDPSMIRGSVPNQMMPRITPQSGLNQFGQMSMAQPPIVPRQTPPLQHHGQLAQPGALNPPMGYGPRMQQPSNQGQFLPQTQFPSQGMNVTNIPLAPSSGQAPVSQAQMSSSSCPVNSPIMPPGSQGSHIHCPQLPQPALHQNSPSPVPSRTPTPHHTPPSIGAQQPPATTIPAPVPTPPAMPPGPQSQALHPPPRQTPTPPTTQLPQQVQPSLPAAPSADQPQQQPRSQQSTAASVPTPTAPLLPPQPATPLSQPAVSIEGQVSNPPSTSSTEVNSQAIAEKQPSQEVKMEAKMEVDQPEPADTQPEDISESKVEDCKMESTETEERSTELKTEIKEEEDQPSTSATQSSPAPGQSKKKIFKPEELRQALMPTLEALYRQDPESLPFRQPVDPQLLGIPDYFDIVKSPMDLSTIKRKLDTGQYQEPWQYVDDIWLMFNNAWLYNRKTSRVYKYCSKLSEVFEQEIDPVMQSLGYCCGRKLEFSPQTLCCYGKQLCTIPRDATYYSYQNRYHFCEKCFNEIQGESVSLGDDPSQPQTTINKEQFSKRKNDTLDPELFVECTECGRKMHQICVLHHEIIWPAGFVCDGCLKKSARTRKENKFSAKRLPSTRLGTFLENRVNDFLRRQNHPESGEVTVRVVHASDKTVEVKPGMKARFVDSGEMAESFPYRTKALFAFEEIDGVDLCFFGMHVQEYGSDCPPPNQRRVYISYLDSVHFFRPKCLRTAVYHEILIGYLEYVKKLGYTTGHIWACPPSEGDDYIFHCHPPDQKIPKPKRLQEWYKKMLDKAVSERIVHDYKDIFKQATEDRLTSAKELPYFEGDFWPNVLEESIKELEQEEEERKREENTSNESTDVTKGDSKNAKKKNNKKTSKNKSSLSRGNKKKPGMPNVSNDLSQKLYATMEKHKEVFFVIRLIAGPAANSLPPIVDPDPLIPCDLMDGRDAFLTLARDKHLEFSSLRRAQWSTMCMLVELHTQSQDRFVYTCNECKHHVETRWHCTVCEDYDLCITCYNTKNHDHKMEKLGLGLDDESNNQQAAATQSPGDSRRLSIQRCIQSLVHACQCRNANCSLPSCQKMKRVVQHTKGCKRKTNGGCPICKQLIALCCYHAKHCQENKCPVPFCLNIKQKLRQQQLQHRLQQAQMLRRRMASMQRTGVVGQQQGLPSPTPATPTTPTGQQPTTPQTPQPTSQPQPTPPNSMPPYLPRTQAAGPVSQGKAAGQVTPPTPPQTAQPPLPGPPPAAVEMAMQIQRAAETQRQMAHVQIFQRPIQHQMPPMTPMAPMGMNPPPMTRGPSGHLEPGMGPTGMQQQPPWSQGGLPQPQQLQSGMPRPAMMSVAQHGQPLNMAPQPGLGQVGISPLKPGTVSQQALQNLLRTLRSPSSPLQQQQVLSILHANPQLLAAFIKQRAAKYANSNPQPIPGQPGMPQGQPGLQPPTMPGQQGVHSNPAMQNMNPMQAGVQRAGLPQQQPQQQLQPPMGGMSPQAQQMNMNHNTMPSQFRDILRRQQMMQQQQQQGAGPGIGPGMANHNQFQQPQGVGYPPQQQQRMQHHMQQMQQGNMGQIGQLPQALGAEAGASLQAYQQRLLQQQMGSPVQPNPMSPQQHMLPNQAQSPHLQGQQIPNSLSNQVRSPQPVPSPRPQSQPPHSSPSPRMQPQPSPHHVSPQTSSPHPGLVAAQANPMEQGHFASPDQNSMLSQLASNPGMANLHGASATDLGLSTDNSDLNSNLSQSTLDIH
Protein cereblon/Histone acetyltransferase p300 (Homo sapiens), sequence (Q96SW2 whole entry partner): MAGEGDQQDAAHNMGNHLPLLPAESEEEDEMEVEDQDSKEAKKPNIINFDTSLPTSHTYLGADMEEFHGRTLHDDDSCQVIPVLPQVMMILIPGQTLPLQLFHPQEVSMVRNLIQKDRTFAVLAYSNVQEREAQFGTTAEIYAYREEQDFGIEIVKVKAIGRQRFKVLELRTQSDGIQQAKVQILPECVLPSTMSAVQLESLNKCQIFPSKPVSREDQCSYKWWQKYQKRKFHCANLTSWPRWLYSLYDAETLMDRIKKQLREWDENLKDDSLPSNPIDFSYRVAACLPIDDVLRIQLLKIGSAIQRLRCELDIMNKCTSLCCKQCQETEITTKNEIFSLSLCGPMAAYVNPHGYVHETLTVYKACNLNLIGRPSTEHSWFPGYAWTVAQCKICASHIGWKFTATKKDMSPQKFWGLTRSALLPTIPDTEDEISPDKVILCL

Row | Activity [1] | pIC50 [2] | Structure (SMILES)
1 | < 50% | 7.35 | CC(=O)N1CCc2c(c(N3CCCc4cc(-c5cnn(C)c5)c(C(F)F)cc43)nn2C2CCN(C(=O)CCCCCNc3cccc4c3C(=O)N(C3CCC(=O)NC3=O)C4=O)CC2)C1 (centres undefined)
2 | > 80% | 9.10 | CNC(=O)N1CCc2c(c(N3CCCc4cc(-c5cnn(C)c5)c(C(F)F)cc43)nn2C2CCN(C(=O)CCCCCCCNc3cccc4c3C(=O)N(C3CCC(=O)NC3=O)C4=O)CC2)C1 (centres undefined)
3 | > 80% | 9.52 | CC(=O)N1CCc2c(c(N3CCCc4cc(-c5cnn(C)c5)c(C(F)F)cc43)nn2C2CCN(CCN3CCC(CCc4ccc5c(c4)n(C)c(=O)n5C4CCC(=O)NC4=O)CC3)CC2)C1 (centres undefined)
4 | > 80% | 10.00 | CC(=O)N1CCc2c(c(N3CCCc4cc(-c5cnn(C)c5)c(C(F)F)cc43)nn2C2CCN(CCN3CCC(CCc4cccc5c4n(C)c(=O)n5C4CCC(=O)NC4=O)CC3)CC2)C1 (centres undefined)
5 | > 80% | 9.10 | CC(=O)N1CCc2c(c(N3CCCc4cc(-c5cnn(C)c5)c(C(F)F)cc43)nn2C2CCN(CCCC3CCN(c4cccc5c4C(=O)N(C4CCC(=O)NC4=O)C5=O)CC3)CC2)C1 (centres undefined)
6 | > 80% | 9.15 | CC(=O)N1CCc2c(c(N3CCCc4cc(-c5cnn(C)c5)c(C(F)F)cc43)nn2C2CCN(C(=O)CCCCCCCNc3cccc4c3C(=O)N(C3CCC(=O)NC3=O)C4=O)CC2)C1 (centres undefined)
7 | > 80% | 10.00 | CC(=O)N1CCc2c(c(N3CCCc4cc(-c5cnn(C)c5)c(C(F)F)cc43)nn2C2CCN(CCN3CCOC(CNc4cccc5c4C(=O)N(C4CCC(=O)NC4=O)C5=O)C3)CC2)C1 (centres undefined)
8 | > 80% | 9.05 | CNC(=O)N1CCc2c(c(N3CCCc4cc(-c5cnn(C)c5)c(C(F)F)cc43)nn2C2CCN(C(=O)CCCCCn3c(=O)n(C4CCC(=O)NC4=O)c4ccccc43)CC2)C1 (centres undefined)
9 | > 80% | 9.52 | CC(=O)N1CCc2c(c(N3CCCc4cc(-c5cnn(C)c5)c(C(F)F)cc43)nn2C2CCN(C(=O)CCCN3CCN(Cc4ccc5c(c4)n(C)c(=O)n5C4CCC(=O)NC4=O)CC3)CC2)C1 (centres undefined)
10 | > 80% | 10.00 | CC(=O)N1CCc2c(c(N3CCCc4cc(-c5cnn(C)c5)c(C(F)F)cc43)nn2C2CCN(CCN3CCN(C#Cc4ccc5c(c4)n(C)c(=O)n5C4CCC(=O)NC4=O)CC3)CC2)C1 (centres undefined)
11 | < 20% | 7.48 | CC(=O)N1CCc2c(c(N3CCCc4cc(-c5cnn(C)c5)c(C(F)F)cc43)nn2C2CCN(C(=O)CN3CCC(CCc4cccc5c4n(C)c(=O)n5C4CCC(=O)NC4=O)CC3)CC2)C1 (centres undefined)
12 | > 80% | 9.40 | CNC(=O)N1CCc2c(c(N3CCCc4cc(-c5cnn(C)c5)c(C(F)F)cc43)nn2C2CCN(C(=O)CCCCCNc3cccc4c3C(=O)N(C3CCC(=O)NC3=O)C4=O)CC2)C1 (centres undefined)
